Laboratory results as given in patent US6465482B2, “Arylpiperazinyl-cyclohexyl indole derivatives for the treatment of depression” (Wyeth, priority 1999, dated 2002).
Where a name gives a salt, the structure may show the parent alone.

| SMILES | melting point |
| --- | --- |
| Cn1ccc2c(N3CCN([C@H]4CC[C@@H](c5cn(C)c6cc(F)ccc65)CC4)CC3)cccc21 (as salt: HCl) (hydrate or solvate) [Example 11, 6-Fluoro-1-methyl-3-{cis-4-[4-(1-methyl-1H-indol-4-yl)-1-piperazinyl]cyclohexyl}-1H-indole] | 253 to 254 °C |
| COc1cc(N2CCN([C@H]3CC[C@@H](c4cn(C)c5ncccc54)CC3)CC2)c2ncccc2c1 [Example 79, 6-Methoxy-8-{cis-4-[4-(1-methyl-1H-pyrrolo[2,3-b]pyridin-3-yl)cyclohexyl]-1-piperazinyl}quinoline] | 105 to 110 °C |
| Fc1ccc2c(c1)[nH]cc2[C@H]1CC[C@H](N2CCN(c3cccc4c3OCCO4)CC2)CC1 (as salt: HCl) [Example 25b, 3-{(1,4-trans)-4-[4-(2,3-Dihydro-benzo[1,4]dioxin-5-yl)-piperazin-1-yl]-cyclohexyl}-6-fluoro-1H-indole] | 309 to 310 °C |
| COc1ccc(F)cc1N1CCN([C@H]2CC[C@@H](c3c[nH]c4ccc(F)cc43)CC2)CC1 (as salt: HCl) [Example 22a, 5-Fluoro-3-{(cis)-4-[4-(5-fluoro-2-methoxy-phenyl)-piperazin-1-yl]-cyclohexyl}-1H-indole] | 171 to 174 °C |
| COc1cc(N2CCN([C@H]3CC[C@@H](c4cn(C)c5ccc(C#N)cc54)CC3)CC2)c2ncc(C)cc2c1 [Example 51b, (cis)-3-{4-[4-(6-Methoxy-3-methylquinolin-8-yl)piperazin-1-yl]cyclohexyl}-1-methyl-1H-indole-5-carbonitrile] | 190 to 191.5 °C |
| Cn1cc([C@H]2CC[C@@H](N3CCN(c4cccc5[nH]ccc45)CC3)CC2)c2cc(C#N)ccc21 (as salt: HCl) (hydrate or solvate) [Example 12a, 3-{(1,4-cis)-4-[4-(1H-indol-4-yl)-piperazin-1-yl]-cyclohexyl}-1-methyl-1H-indole-5-carbonitrile] | 285.5 to 288 °C |
| COc1cc(N2CCN([C@H]3CC[C@H](c4c[nH]c5ccc(C#N)cc54)CC3)CC2)c2cc[nH]c2c1 (as salt: HCl) [Example 68b, 3-[trans-4-[4-(6-Methoxy-1H-indole-4-yl)-1-piperazinyl]cyclohexyl]1H-indole-5-carbonitrile] | > 210 °C |
| COc1ccc2[nH]cc([C@H]3CC[C@@H](N4CCN(c5cccc6[nH]ccc56)CC4)CC3)c2c1 (as salt: HCl) (hydrate or solvate) [Example 8a, 5-Methoxy-3-[cis-4-[4-(1H-indol-4-yl)-1-piperazinyl]cyclohexyl]-1H-indole] | 283 to 285 °C |
| COc1cc(N2CCN([C@H]3CC[C@H](c4cn(C)c5ccc(C#N)cc54)CC3)CC2)c2nccc(C)c2c1 [Example 51d, (trans)-3-{4-[4-(6-Methoxy-4-methylquinolin-8-yl)piperazin-1-yl]cyclohexyl}-1-methyl-1H-indole-5-carbonitrile] | 230 to 232 °C |
| COc1ccc2[nH]cc([C@H]3CC[C@H](N4CCN(c5cccc6[nH]ccc56)CC4)CC3)c2c1 (as salt: HCl) (hydrate or solvate) [Example 8b, 5-Methoxy-3-[trans-4-[4-(1H-indol-4-yl)-1-piperazinyl]cyclohexyl]-1H-indole] | 194 to 196 °C |
| Clc1ccc2[nH]cc([C@H]3CC[C@@H](N4CCN(c5cccc6[nH]ccc56)CC4)CC3)c2c1 (as salt: HCl) (hydrate or solvate) [Example 6a, 5-Chloro-3-[cis-4-[4-(1H-indol-4-yl)-1-piperazinyl]cyclohexyl]-1H-indole] | 283 to 285 °C |
| c1cc(N2CCN([C@H]3CC[C@H](c4c[nH]c5ccccc54)CC3)CC2)c2cc[nH]c2c1 (as salt: HCl) [Example 1b, 3-[trans-4-[4-(1H-Indol-4-yl)-1-piperazinyl]cyclohexyl]-1H-indole] | 305 °C (dec.) |
| Fc1cccc2[nH]cc([C@H]3CC[C@@H](N4CCN(c5cccc6[nH]ccc56)CC4)CC3)c12 (as salt: HCl) (hydrate or solvate) [Example 2a, 4-Fluoro-3-[cis-4-[4-(1H-indol-4-yl)-1-piperazinyl]cyclohexyl]-1H-indole] | 283 to 285 °C |
| N#Cc1ccc2[nH]cc(C3=CCC(N4CCN(c5cccc6[nH]ccc56)CC4)CC3)c2c1 (stereo not drawn) (as salt: HCl) [Example 36, 3-{4-[4-(1H-Indol-4-yl)-piperazin-1-yl]-cyclohex-1-enyl}-1H-indole-5-carbonitrile] | 199 to 201 °C |
| COc1ccccc1C1CCN([C@H]2CC[C@@H](c3c[nH]c4ccc(F)cc43)CC2)CC1 (as salt: HCl) [Example 19a, 5-Fluoro-3-{(1,4-cis)-4-[4-(2-methoxy-phenyl)-piperidin-1-yl]-cyclohexyl}-1H-indole] | 245 to 250 °C |
| Fc1ccc2[nH]cc([C@H]3CC[C@H](N4CCN(c5cccc6[nH]ccc56)CC4)CC3)c2c1 (as salt: HCl) [Example 3b, 5-Fluoro-3-[trans-4-[4-(1H-indol-4-yl)-1-piperazinyl]cyclohexyl]-1H-indole] | 280 °C (dec.) |
| Cn1cc([C@H]2CC[C@@H](N3CCN(c4cccc5cccnc45)CC3)CC2)c2cc(F)ccc21 (as salt: HCl) (hydrate or solvate) [Example 28, 8-{4-(1,4-cis)-4-[4-(5-Fluoro-1-methyl-1H-indol-3-yl)-cyclohexyl]-piperazin-1-yl}-quinoline] | 261 to 263.5 °C |

| SMILES | melting point |
| --- | --- |
| COc1ccccc1C1CCN([C@H]2CC[C@H](c3c[nH]c4ccc(F)cc43)CC2)CC1 (as salt: HCl) [Example 19b, 5-Fluoro-3-{(1,4-trans)-4-[4-(2-methoxy-phenyl)-piperidin-1-yl]-cyclohexyl}-1H-indole] | 297 to 299 °C |
| Cn1cc([C@H]2CC[C@@H](N3CCN(c4cc(C(=O)O)cc5cccnc45)CC3)CC2)c2cc(C#N)ccc21 (as salt: oxalate) [Example 73, 8-[4-[(cis)-4-(5-Cyano-1-methyl-1H-indole-3-yl)cyclohexyl]-1-piperazinyl]-6-quinolinecarboxylic Acid] | 230 °C |
| COc1ccccc1N1CCN([C@H]2CC[C@@H](c3c[nH]c4ncccc43)CC2)CC1 (as salt: HCl) [Example 21, 3-{(1,4-cis)-4-[4-(2-Methoxy-phenyl)-piperazin-1-yl]-cyclohexyl}-1H-pyrrolo[2,3-b]pyridine] | 259 to 261 °C |
| Fc1ccc2c(c1)[nH]cc2[C@H]1CC[C@H](N2CCN(c3cccc4[nH]ccc34)CC2)CC1 (as salt: HCl) [Example 4b, 6-Fluoro-3-[trans-4-[4-(1H-indol-4-yl)-1-piperazinyl]cyclohexyl]-1H-indole] | 319 to 320 °C (dec.) |
| COc1cc(N2CCN([C@H]3CC[C@@H](c4cn(C)c5ccc(C#N)cc54)CC3)CC2)c2nc(C)ccc2c1 [Example 51a, (cis)-3-{4-[4-(6-Methoxy-2-methylquinolin-8-yl)piperazin-1-yl]cyclohexyl}-1-methyl-1H-indole-5-carbonitrile] | 201 to 203 °C |
| N#Cc1ccc2[nH]cc([C@H]3CC[C@H](N4CCN(c5cccc6c5OCCO6)CC4)CC3)c2c1 (as salt: HCl) [Example 26b, 3-{(1,4-trans)-4-[4-(2,3-Dihydro-benzo[1,4]dioxin-5-yl)-piperazin-1-yl]-cyclohexyl}-1H-indole-5-carbonitrile] | 300 °C (dec.) |
| Brc1ccc2[nH]cc([C@H]3CC[C@H](N4CCN(c5cccc6[nH]ccc56)CC4)CC3)c2c1 (as salt: HCl) [Example 5b, 5-Bromo-3-[trans-4-[4-(1H-indol-4-yl)-1-piperazinyl]cyclohexyl]-1H-indole] | > 300 °C |
| COc1cc(N2CCN([C@H]3CC[C@H](c4cn(C)c5ccc(C#N)cc54)CC3)CC2)c2ncccc2c1Cl [Example 52f, (trans)-3-{4-[4-(5-Chloro-6-methoxyquinolin-8-yl)piperazin-1-yl]cyclohexyl}-1-methyl-1H-indole-5-carbonitrile] | 215 to 216 °C |
| COc1cc(N2CCN(C3CCC(c4c[nH]c5cc(C#N)ccc45)CC3)CC2)c2ncccc2c1 (stereo not drawn) [Example 85, 3-{4-[4-(6-Methoxy-8-quinolinyl)-1-piperazinyl]cyclohexyl}-1H-indole-6-carbonitrile] | 242 to 244 °C |
| c1cc(N2CCN([C@H]3CC[C@@H](c4c[nH]c5ccccc54)CC3)CC2)c2cc[nH]c2c1 (as salt: HCl) [Example 1a, 3-[cis-4-[4-(1H-Indol-4-yl)-1-piperazinyl]cyclohexyl]-1H-indole] | 198 to 200 °C |
| COc1cc(N2CCN([C@H]3CC[C@@H](c4cn(C)c5ccc(C#N)cc54)CC3)CC2)c2ncccc2c1C [Example 52a, (cis)-3-{4-[4-(6-Methoxy-5-methylquinolin-8-yl)piperazin-1-yl]cyclohexyl}-1-methyl-1H-indole-5-carbonitrile] | 227 to 228 °C |
| Cn1cc([C@H]2CC[C@@H](N3CCN(c4cc(Br)cc5cccnc45)CC3)CC2)c2cc(F)ccc21 [Example 58a, (cis)-6-Bromo-8-{4-[4-(5-fluoro-1-methyl-1H-indol-3-yl)cyclohexyl]piperazin-1-yl}quinoline] | 215 to 217 °C |
| COc1cc(N2CCN([C@H]3CC[C@@H](c4cn(C)c5ccc(C#N)cc54)CC3)CC2)c2nccc(C)c2c1 [Example 51c, (cis)-3-{4-[4-(6-Methoxy-4-methylquinolin-8-yl)piperazin-1-yl]cyclohexyl}-1-methyl-1H-indole-5-carbonitrile] | 210 to 212 °C |
| Cc1[nH]c2ccccc2c1[C@H]1CC[C@H](N2CCN(c3cccc4[nH]ccc34)CC2)CC1 (as salt: HCl) [Example 9b, 3-[trans-4-[4-(1H-Indol-4-yl)-1-piperazinyl]cyclohexyl]-2-methyl-1H-indole] | > 310 °C |
| COc1ccccc1N1CCN(C2CC=C(c3c[nH]c4ccc(F)cc34)CC2)CC1 (stereo not drawn) (as salt: HCl) [Example 35, 5-Fluoro-3-{4-[4-(2-methoxy-phenyl)-piperazin-1-yl]cyclohex-1-enyl}-1H-indole] | 250 °C |
| Cn1ccc2c(N3CCN([C@H]4CC[C@@H](c5cn(C)c6ccc(C#N)cc65)CC4)CC3)cccc21 (as salt: HCl) [Example 17, 1-Methyl-3-{(1,4-cis)-4-[4-(1-methyl-1H-indol-4-yl)-piperazin-1-yl]-cyclohexyl}-1H-indole-5-carbonitrile] | 252 to 255 °C |
